Measurements taken from paper PMC6867895 (mBio, 2019).
In brackets after ≈: the same amount, converted by molar mass. Where two headings read alike, the source gives them in different places.

Tests used:
[1] = tested on: E. coli DH10B pBCSK-; experiment: microbe, parasite or virus in culture; details: Escherichia coli, DH10BPBCSK, read-out: MIC
[2] = biological target: T1, VIM-2 (Pseudomonas aeruginosa, UniProt Q9K2N0); details: read-out: Parameter by metallo-β-lactamase / VIM-2 / KM; 50 mM HEPES pH 7.0, 10 μM added ZnSO4, 25°C
T1 construct: gene blaVIM-2

[3] = tested on: E. coli DH10B pBCSK- blaVIM-2; experiment: microbe, parasite or virus in culture; details: Escherichia coli, read-out: MIC
[4] = biological target: T1, VIM-2; details: read-out: Parameter by metallo-β-lactamase / VIM-2 / KM; 50 mM HEPES pH 7.0, 10 μM added ZnSO4, 25°C; remark: listed apart in the source
[5] = biological target: T1, VIM-2; details: read-out: Parameter by metallo-β-lactamase / VIM-2 / KM; 50 mM HEPES pH 7.0, 10 μM added ZnSO4, 25°C; remark: listed apart in the source
[6] = biological target: T1, VIM-2; experiment: initial-rate hydrolysis, absorbance […] nm (product formation); type: biochemical; details: read-out: Parameter by metallo-β-lactamase / VIM-2 / KM; 50 mM HEPES pH 7.0, 10 μM added ZnSO4, 25°C

Row | Compound | MIC [1] | Km [2] | MIC [3] | Km [4] | Km [5] | Km [6]
1 | CC1(C)S[C@@H]2[C@H](NC(=O)[C@H](N)c3ccccc3)C(=O)N2[C@H]1C(=O)O [Ampicillin] | 4 µg/mL (≈ 11.4 µM) | 84 ± 7 µM | 1020 µg/mL (≈ 2930 µM) | – | – | –
2 | C[C@@H](O)[C@H]1C(=O)N2C(C(=O)O)=C(S[C@@H]3CN[C@H](C(=O)N(C)C)C3)[C@H](C)[C@H]12 [Meropenem] | 0.03 µg/mL (≈ 0.0782 µM) | – | 0.5 µg/mL (≈ 1.3 µM) | 5 ± 0.8 µM | – | –
3 | CC(C)(O/N=C(\C(=O)N[C@@H]1C(=O)N2C(C(=O)[O-])=C(C[n+]3ccccc3)CS[C@H]12)c1csc(N)n1)C(=O)O [Ceftazidime] | 0.5 µg/mL (≈ 0.915 µM) | – | 32 µg/mL (≈ 58.5 µM) | – | 90 ± 11 µM | –
4 | CC(=O)OCC1=C(C(=O)O)N2C(=O)[C@@H](NC(=O)Cc3cccs3)[C@H]2SC1 [Cephalothin] | 4 µg/mL (≈ 10.1 µM) | – | 256 µg/mL (≈ 646 µM) | – | – | –
5 | C[C@@H](O)[C@H]1C(=O)N2C(C(=O)O)=C(SCCNC=N)C[C@H]12 [Imipenem] | 0.5 µg/mL (≈ 1.67 µM) | – | 4 µg/mL (≈ 13.4 µM) | – | – | –
6 | C[C@@H](O)[C@H]1C(=O)N2C(C(=O)O)=C(S[C@@H]3CN[C@H](C(=O)Nc4cccc(C(=O)O)c4)C3)[C@H](C)[C@H]12 [Ertapenem] | 0.0075 µg/mL (≈ 0.0158 µM) | – | 0.25 µg/mL (≈ 0.526 µM) | – | – | –
7 | Chromacef | – | – | – | – | – | 11 ± 2 µM
